Tests used:
[1] = system: MOLM-13 cells; test: Tumor cell proliferation inhibition experiment (CellTiter-Glo); assay type: cell-based; details: Homo sapiens; acute myeloid leukemia cell line MOLM-13; 16 h incubation; CellTiter-Glo; read-out: MOLM-13 (nM) IC50, cell proliferation inhibition
From the text: An acute myeloid leukemia (AML) cell line (MOLM-13) was purchased from NANJING COBIOER BIOSCIENCES CO., LTD. An RPMI1640 medium and a penicillin-streptomycin double-antibody were purchased from ThermoFisher (Waltham, MA, USA). Certified fetal bovine serum (FBS) was purchased from Biological Industries (Israel). A Corning 384-well cell culture plate was purchased from CORNING (USA). Cell-Titer Glo® was purchased from Promega Corporation (Madison, WI, USA).
To evaluate the ability of the synthetic compound to inhibit the proliferation of MOLM-13 cells, MOLM-13 cells at an exponential growth stage were inoculated at a density of 500,000 cell/mL in the RPMI1640 medium containing 20% bovine serum and 1% penicillin-streptomycin double-antibody, and the 384-well plate contained 20 μL per well and placed overnight in an 37° C., 5% CO2 incubator. Compound powder was dissolved in DMSO to prepare a storage mother liquor with a concentration of 2 mM, and 12 dilutions with three-fold gradient concentrations were further prepared. 1 μL of gradient-diluted DMSO solution was added to 99 μL of cell culture medium (the final maximum concentration of the compound in the assay was 10 uM and the final concentration of DMSO was 0.5%). 20 μL of compound solution in the medium was added at gradients to each cell-coated test well of the 384-well plate. After the compound solution was added, the 384-well plate was incubated for 16 h in a 37° C., 5% CO2 incubator. Cell viability was determined by quantifying ATPs present in test wells using the CellTiter-Glo kit from Promega (Madison, WI, USA). After 20 minutes of incubation, readings were obtained under a chemical luminescence procedure using Tecan's Spark multifunctional plate reader. The concentration (IC50 value) of the compound at which the cell survival rate was inhibited by 50% was determined using an S-shaped dosage response model (variable slope, four parameters) in Prism 7 (LaJolla, CA).

[2] = biological target: CDK9 (Homo sapiens, UniProt P50750); test: CDK9 kinase activity inhibition (ADP-Glo); assay type: biochemical; details: 10 μM ATP, 2 h at room temperature
[3] = biological target: T1, CDK2 (Homo sapiens, UniProt P24941); test: CDK2 kinase activity inhibition (ADP-Glo); assay type: biochemical; details: 10 μM ATP, 2 h at room temperature
T1 construct: purchased Carna Biosciences, Inc

[4] = biological target: T2, CDK1 (Homo sapiens, UniProt P06493); test: CDK1 kinase activity inhibition (ADP-Glo); assay type: biochemical; details: 50 μM ATP, 2 h at room temperature
T2 construct: purchased Carna Biosciences, Inc
Method: CDK9 kinase was manufactured by the company or commercially available. CDK1, CDK2 and CDK7 were purchased from Carna Biosciences, Inc. ADP-Glo™ kit was purchased from Promega Corporation. Dithiothreitol (DTT), Tween-20, dimethylsulfoxide (DMSO), bovine serum albumin (BSA) and Tris base were obtained from Sigma at the available highest level of purity.
General procedures for CDK inhibition determination: The determination was performed in a buffer consisting of 50 μM DTT, 0.1% BSA, 40 mM Tris-HCl pH=7.5 and 20 mM MgCl2. The compound dissolved in DMSO and CDK enzymes were diluted with the buffer. 1 μL of the compound solution in 5% DMSO and 2 μL of the CDK enzyme solution were added to a white low-volume 384-well microtiter plate and incubated for 20 min at room temperature. Ultra pure ATP and the substrate polypeptide (purchased from GenScript Biotech Corporation) were diluted together into the buffer and added to a mixed solution of the compound and the enzyme, 2 μL per well. They were incubated for 2 h at room temperature.
After the reaction was completed, 5 μL of ADP-Glo™ reagent was added to each well and incubated for 40 min at room temperature, and then 10 μL of test reagent was added to each well and incubated for 30 mi at room temperature. Chemical luminescence values were measured by using a Tecan (Männedorf, Switzerland) multifunctional plate reader Spark for plate reading. The IC50 value of the inhibitor was obtained by fitting the chemical luminescence intensity ratio in the S-shaped dosage reaction curve using Prism 7 (La Jolla, 15 CA) relative to the concentration of the inhibitor.

[5] = biological target: T3, CDK7 (Homo sapiens, UniProt P50613); test: CDK7 kinase activity inhibition (ADP-Glo); assay type: biochemical; details: 10 μM ATP, 2 h at room temperature
T3 construct: purchased Carna Biosciences, Inc
T3 sequence (P50613 whole entry): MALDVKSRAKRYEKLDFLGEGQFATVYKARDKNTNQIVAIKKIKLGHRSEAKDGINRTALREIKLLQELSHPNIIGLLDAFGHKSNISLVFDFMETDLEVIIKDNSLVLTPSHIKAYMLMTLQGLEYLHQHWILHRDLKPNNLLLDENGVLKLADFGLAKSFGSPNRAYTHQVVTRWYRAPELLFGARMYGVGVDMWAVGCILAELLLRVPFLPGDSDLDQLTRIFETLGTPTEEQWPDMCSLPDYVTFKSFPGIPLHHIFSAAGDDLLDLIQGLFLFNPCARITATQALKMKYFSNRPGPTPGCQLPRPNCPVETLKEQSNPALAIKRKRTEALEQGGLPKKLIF
T3 sequence (P51946 whole entry partner): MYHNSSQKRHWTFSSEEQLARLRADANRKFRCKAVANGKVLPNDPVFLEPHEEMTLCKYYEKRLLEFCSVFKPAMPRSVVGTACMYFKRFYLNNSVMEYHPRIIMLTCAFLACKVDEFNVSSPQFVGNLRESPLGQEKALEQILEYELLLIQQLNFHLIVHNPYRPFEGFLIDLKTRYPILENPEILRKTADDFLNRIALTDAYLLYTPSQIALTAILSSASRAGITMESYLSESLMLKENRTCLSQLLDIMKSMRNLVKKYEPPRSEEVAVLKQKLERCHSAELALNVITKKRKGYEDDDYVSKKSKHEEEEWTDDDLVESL
T3 sequence (P51948 whole entry partner): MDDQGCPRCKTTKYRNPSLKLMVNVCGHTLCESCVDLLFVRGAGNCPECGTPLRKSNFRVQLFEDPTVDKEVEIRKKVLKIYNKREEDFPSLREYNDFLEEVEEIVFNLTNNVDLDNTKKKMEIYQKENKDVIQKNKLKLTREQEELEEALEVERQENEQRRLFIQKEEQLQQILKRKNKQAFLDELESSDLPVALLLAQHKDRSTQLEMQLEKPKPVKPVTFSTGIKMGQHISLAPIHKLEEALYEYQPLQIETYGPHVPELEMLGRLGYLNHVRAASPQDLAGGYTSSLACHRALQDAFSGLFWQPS

T2 sequence (P06493 whole entry): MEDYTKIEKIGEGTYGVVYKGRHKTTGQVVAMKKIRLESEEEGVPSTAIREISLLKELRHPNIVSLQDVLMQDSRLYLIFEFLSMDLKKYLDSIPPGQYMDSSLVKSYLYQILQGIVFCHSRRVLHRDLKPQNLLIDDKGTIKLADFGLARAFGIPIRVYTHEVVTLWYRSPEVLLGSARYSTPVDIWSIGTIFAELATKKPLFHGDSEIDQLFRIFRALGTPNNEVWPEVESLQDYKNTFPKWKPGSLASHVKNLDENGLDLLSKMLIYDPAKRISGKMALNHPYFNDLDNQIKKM
T2 sequence (P14635 whole entry partner): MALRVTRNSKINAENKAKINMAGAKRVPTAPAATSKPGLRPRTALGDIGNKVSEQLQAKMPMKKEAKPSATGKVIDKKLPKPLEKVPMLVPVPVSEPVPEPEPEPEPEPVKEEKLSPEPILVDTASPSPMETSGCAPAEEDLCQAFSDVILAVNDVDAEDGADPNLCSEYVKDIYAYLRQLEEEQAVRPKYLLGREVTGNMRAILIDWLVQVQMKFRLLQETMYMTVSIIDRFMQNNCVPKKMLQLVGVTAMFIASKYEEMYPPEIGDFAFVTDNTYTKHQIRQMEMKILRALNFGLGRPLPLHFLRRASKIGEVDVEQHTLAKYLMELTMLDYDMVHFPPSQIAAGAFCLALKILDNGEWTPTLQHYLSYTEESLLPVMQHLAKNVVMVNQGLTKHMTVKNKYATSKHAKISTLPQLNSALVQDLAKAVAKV
CDK9, sequence (P50750 whole entry): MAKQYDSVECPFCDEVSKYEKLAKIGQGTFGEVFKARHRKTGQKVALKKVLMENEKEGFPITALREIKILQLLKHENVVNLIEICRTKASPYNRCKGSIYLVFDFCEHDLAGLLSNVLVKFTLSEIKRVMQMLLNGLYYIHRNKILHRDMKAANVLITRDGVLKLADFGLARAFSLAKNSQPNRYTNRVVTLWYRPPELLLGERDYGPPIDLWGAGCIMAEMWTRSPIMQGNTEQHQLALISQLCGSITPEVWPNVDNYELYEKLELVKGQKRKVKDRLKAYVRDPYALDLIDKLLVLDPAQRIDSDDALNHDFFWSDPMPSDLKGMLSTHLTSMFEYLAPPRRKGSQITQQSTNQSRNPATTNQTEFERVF
CDK9, sequence (O60563 whole entry partner): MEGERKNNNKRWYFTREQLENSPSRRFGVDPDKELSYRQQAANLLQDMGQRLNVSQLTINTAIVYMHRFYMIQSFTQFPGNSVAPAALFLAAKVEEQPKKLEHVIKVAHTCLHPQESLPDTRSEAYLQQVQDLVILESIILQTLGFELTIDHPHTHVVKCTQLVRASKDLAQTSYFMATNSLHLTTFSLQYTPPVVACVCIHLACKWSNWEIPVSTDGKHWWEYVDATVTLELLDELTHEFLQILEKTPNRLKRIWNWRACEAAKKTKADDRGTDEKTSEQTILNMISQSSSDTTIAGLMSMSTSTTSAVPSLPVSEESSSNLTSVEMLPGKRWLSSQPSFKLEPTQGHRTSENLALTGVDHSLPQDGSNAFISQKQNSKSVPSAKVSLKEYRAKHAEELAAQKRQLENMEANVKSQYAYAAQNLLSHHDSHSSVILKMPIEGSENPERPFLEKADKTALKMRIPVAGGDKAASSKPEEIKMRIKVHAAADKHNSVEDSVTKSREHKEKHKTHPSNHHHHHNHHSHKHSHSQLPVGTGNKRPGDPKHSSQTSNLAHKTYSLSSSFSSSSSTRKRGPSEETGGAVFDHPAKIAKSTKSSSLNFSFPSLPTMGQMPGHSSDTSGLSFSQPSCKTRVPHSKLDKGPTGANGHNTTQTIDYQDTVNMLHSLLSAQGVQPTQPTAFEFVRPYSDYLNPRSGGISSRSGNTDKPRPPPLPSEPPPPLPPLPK

- IC50 [1]: 11.3 nM
- IC50 [2]: 11.7 nM
- IC50 [3]: 99.3 nM
- IC50 [4]: 291 nM
- IC50 [5]: 3180 nM
Compound: CC(=O)NC[C@H]1CCC(F)(F)CN1C(=O)c1nc(Nc2cc(C(F)(F)F)ccn2)ccc1C [Compound 30, (R)—N-((5,5-difluoro-1-(3-methyl-6-((4-(trifluoromethyl)pyridin-2-yl)amino)pyridine-2-carbonyl)piperidin-2-yl)methyl)acetamide]

From patent publication US12729192B2, “CDK9 inhibitor and use thereof” (PHARMABLOCK SCIENCES (NANJING), INC., priority 2020, dated 2026)
